Activity calls are given as the source filed them. The rule behind the calls is not given here.
Tests used:
Histone deacetylase 3 = Histone deacetylase 3 (Homo sapiens, UniProt O15379); assay: Inhibition of HDAC3 (unknown origin) using fluorogenic substrate incubated for 30 mins by fluorescence plate reader
NCI-H1975 [1] = assay: Induction of apoptosis in human NCI-H1975 cells assessed as caspase-8 cleavage at 0.05 to 2 uM incubated for 24 hrs by western blot analysis; type: functional, cell-based; details: dose 0.05-2 µM, DDE = dose-dependent effect
NCI-H1975 [2] = assay: Antitumor activity against NSG mouse xenografted with human NCI-H1975 cells assessed as reduction on tumor growth at 25 mg/kg,ip measured after 2 weeks; type: functional, organism-based
Mus musculus [3] = assay: In vivo inhibition of HDAC1 in human NCI-H1975 cells xenografted with NSG mouse assessed as increase in acetylation of Histone H3 at 25 mg/kg,ip measured after 6 weeks by immunohistochemistry analysis; type: functional, organism-based
NCI-H1975 [4] = assay: Antitumor activity against NSG mouse xenografted with human NCI-H1975 cells assessed as reduction on tumor growth at 50 mg/kg,ip measured after 6 weeks; type: functional, organism-based
[5] = target: T1, Protein deacetylase HDAC6 (Homo sapiens) (UniProt Q9UBN7); assay: Inhibition of HDAC6 in human NCI-H1975 cells assessed as downregulation of HDAC6 expression at 0.05 to 2 uM incubated for 24 hrs by western blot analysis; type: cell-based; details: dose 0.05-2 µM, DDE = dose-dependent effect
T1 sequence (whole entry): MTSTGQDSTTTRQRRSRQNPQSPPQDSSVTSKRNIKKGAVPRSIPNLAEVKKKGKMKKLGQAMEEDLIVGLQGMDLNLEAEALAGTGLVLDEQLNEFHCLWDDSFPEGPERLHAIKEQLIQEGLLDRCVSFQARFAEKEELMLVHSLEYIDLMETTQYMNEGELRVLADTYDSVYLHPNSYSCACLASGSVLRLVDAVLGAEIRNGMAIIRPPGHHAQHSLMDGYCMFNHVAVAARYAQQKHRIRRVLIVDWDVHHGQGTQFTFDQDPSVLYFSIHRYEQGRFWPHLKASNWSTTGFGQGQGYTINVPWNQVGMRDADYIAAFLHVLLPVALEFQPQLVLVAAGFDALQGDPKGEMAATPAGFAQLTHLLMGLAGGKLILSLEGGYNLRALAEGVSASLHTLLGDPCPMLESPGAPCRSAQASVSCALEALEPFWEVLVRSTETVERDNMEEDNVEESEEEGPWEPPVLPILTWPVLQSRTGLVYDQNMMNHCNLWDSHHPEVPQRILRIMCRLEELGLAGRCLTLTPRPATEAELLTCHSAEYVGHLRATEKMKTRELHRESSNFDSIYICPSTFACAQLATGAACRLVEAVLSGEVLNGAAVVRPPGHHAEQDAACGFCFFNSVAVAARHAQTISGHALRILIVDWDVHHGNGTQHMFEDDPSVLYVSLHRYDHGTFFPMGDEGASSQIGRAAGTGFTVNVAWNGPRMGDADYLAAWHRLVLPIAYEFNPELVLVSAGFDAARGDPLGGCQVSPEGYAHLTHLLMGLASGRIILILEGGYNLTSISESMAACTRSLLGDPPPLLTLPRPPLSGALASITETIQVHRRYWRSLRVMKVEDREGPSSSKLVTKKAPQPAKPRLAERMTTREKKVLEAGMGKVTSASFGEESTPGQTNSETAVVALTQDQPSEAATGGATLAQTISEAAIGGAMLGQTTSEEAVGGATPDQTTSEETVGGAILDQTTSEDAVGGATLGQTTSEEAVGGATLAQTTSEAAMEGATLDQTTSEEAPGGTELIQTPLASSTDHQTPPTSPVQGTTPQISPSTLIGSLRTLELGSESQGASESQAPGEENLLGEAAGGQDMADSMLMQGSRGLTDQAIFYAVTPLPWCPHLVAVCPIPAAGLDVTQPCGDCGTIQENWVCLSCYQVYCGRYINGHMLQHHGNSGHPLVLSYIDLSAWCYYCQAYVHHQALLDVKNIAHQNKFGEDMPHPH

[6] = target: T2, Heat shock protein HSP90 (Homo sapiens) (UniProt P07900+P08238); assay: Inhibition of HSP90 in human NCI-H1975 cells assessed as downregulation of Met expression at 2 uM incubated for 24 hrs by western blot analysis; type: cell-based
[7] = Toxicity in NSG mouse xenografted with human NCI-H1975 cells assessed as change in number of retina at 50 mg/kg,ip measured after 6 weeks by H and E staining based assay; type: organism-based; details: in vivo, 1008 h
[8] = Toxicity in NSG mouse xenografted with human NCI-H1975 cells assessed as change in number of retina at 25 mg/kg,ip measured after 6 weeks by H and E staining based assay; type: organism-based; details: in vivo, 1008 h
[9] = Toxicity in NSG mouse xenografted with human NCI-H1975 cells assessed as change in structure of retina at 25 mg/kg,ip measured after 6 weeks by H and E staining based assay; type: organism-based; details: in vivo, 1008 h
[10] = target: T2, Heat shock protein HSP90 (Homo sapiens); assay: Inhibition of HSP90 in human NCI-H1975 cells assessed as downregulation of Akt expression at 0.05 to 2 uM incubated for 24 hrs by western blot analysis; type: cell-based; details: dose 0.05-2 µM, DDE = dose-dependent effect
NCI-H1975 [11] = assay: Induction of apoptosis in human NCI-H1975 cells assessed as PARP cleavage at 0.05 to 2 uM incubated for 24 hrs by western blot analysis; type: functional, cell-based; details: dose 0.05-2 µM, DDE = dose-dependent effect
NCI-H1975 [12] = assay: Induction of apoptosis in human NCI-H1975 cells assessed as late apoptotic cells at 2 uM incubated for 24 hrs by Annexin-V/propidium iodide staining based flow cytometry analysis; type: functional
[13] = Toxicity in NSG mouse xenografted with human NCI-H1975 cells assessed as histological abnormalities in ocular region at 25 mg/kg,ip measured after 6 weeks by H and E staining based assay; type: organism-based; details: in vivo, 1008 h
[14] = target: T2, Heat shock protein HSP90 (Homo sapiens); assay: Inhibition of HSP90 in human NCI-H1975 cells assessed as downregulation of Her2 expression at 0.05 to 2 uM incubated for 24 hrs by western blot analysis; type: cell-based; details: dose 0.05-2 µM, DDE = dose-dependent effect
[15] = Toxicity in NSG mouse xenografted with human NCI-H1975 cells assessed as change in structure of retina at 50 mg/kg,ip measured after 6 weeks by H and E staining based assay; type: organism-based; details: in vivo, 1008 h
[16] = target: T2, Heat shock protein HSP90 (Homo sapiens); assay: Inhibition of HSP90 in human NCI-H1975 cells assessed as downregulation of CDK-4 expression at 2 uM incubated for 24 hrs by western blot analysis; type: cell-based
[17] = target: T1, Protein deacetylase HDAC6 (Homo sapiens); assay: Inhibition of HDAC6 in human NCI-H1975 cells assessed as increase in acetylation of alpha tubulin at 1 uM incubated for 24 hrs by DAPI staining based immunofluorescence microscopy; type: cell-based
[18] = target: T2, Heat shock protein HSP90 (Homo sapiens); assay: Inhibition of HSP90 in human NCI-H1975 cells assessed as downregulation of Met expression at 0.05 to 2 uM incubated for 24 hrs by western blot analysis; type: cell-based; details: dose 0.05-2 µM, DDE = dose-dependent effect
Mus musculus [19] = assay: In vivo inhibition of HSP90 in human NCI-H1975 cells xenografted with NSG mouse assessed as downregulation of EGFR expression at 25 mg/kg,ip measured after 6 weeks by immunohistochemistry analysis; type: functional, organism-based
[20] = target: Histone deacetylase 1 (Homo sapiens) (UniProt Q13547); assay: Inhibition of HDAC1 in human NCI-H1975 cells assessed as increase in acetylation of Histone H3 at 2 uM incubated for 24 hrs by western blot analysis; type: cell-based
Sequence of Histone deacetylase 1 (Homo sapiens) (Q13547 whole entry): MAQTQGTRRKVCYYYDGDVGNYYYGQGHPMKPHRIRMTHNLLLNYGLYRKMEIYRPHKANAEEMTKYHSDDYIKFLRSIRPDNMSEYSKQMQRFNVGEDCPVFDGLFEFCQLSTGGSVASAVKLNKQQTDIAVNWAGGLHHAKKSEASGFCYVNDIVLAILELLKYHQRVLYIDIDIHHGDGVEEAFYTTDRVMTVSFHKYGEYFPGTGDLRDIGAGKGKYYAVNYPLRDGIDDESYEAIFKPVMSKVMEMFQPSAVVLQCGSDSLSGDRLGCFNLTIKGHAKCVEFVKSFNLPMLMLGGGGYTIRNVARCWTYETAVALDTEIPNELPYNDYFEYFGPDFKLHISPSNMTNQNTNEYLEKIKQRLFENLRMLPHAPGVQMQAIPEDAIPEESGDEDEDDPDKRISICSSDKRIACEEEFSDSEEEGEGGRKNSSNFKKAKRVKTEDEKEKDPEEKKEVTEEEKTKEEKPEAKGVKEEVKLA

Sequence of Histone deacetylase 3 (O15379 whole entry): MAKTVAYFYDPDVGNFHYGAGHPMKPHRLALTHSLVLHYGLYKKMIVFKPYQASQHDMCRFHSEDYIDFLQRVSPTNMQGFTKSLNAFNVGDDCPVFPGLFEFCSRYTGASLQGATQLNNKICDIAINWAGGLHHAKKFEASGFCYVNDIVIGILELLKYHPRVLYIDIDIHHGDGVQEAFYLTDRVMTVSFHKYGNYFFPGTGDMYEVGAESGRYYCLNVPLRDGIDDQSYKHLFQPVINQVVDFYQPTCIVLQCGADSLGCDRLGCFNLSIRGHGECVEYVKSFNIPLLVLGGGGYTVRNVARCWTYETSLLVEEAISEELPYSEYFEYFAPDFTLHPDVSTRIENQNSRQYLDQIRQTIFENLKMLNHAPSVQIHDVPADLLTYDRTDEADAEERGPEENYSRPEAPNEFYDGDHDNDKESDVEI

IC50 (Histone deacetylase 3): 1540 nM
inhibition [5]: Dde
inhibition [6]: Active
inhibition [10]: Dde
inhibition [14]: Dde
inhibition [16]: Active
inhibition [17]: Active
inhibition [18]: Dde
inhibition [20]: Active
SMILES: CC(C)c1cc(C(=O)N(C)Cc2ccc(C(=O)NO)cc2)c(O)cc1O
Activity (NCI-H1975 [1]): Dde
Activity (NCI-H1975 [2]): Active
inhibition (Mus musculus [3]): Active
Activity (NCI-H1975 [4]): Active
Activity [7]: Non-Toxic
Activity [8]: Non-Toxic
Activity [9]: Non-Toxic
Activity (NCI-H1975 [11]): Dde
Activity (NCI-H1975 [12]): 9.01%
Activity [13]: Non-Toxic
Activity [15]: Non-Toxic
inhibition (Mus musculus [19]): Active

Source: ChEMBL document CHEMBL5113492, “Design, synthesis, and biological evalution of bifunctional inhibitors against Hsp90-HDAC6 interplay” (Eur J Med Chem, 2022)
